According to patent publication US6706740B2, “Fungicidal heterocyclic aromatic amides and their compositions, methods of use and preparation” (Dow AgroSciences LLC, priority 1999, dated 2004):

Tested on: Septoria tritici—SEPTTR
Assay: Leaf Blotch of Wheat, in vivo whole plant, 24 Hour Protectant
Settings: Zymoseptoria tritici, 24 h, 100 ppm spray, 24 hour protectant, wheat; control of fungal infection vs untreated plants; read-out: SEPTTR in vivo 1 Day Protectant

Compound	pest or weed control at 100 ppm [%]
COc1ccnc(C(=O)NC2CCc3ccccc3C2=O)c1O (stereo not drawn) [Compound 285]	25 to 74
COc1ccnc(C(=O)N[C@H]2C(O)[C@@H]3CC[C@H]2[C@@H]2CCCC[C@@H]23)c1O (stereo partly drawn) [Compound 293]	25 to 74
COc1ccnc(C(=O)N[C@H]2CC[C@@H](Oc3ccc(C(F)(F)F)cc3)CC2)c1O [Compound 271]	25 to 74

Tested on: not given
Assay: not given
Settings: not given

Compound	melting point
COc1ccnc(C(=O)NC2CCc3ccccc3C2=O)c1O (stereo not drawn) [Compound 285]	174 to 179 °C
COc1ccnc(C(=O)N[C@H]2C(O)[C@@H]3CC[C@H]2[C@@H]2CCCC[C@@H]23)c1O (stereo partly drawn) [Compound 293]	143 to 160 °C (dec.)
COc1ccnc(C(=O)N[C@H]2CC[C@@H](Oc3ccc(C(F)(F)F)cc3)CC2)c1O [Compound 271]	181 to 183 °C (dec.)

Tested on: Erysiphe graminis—ERYSGT
Assay: Powdery Mildew of Wheat, in vivo whole plant, 24 Hour Protectant
Settings: Erysiphe; 100 ppm spray, 24 hour protectant, wheat; control of fungal infection vs untreated plants; read-out: ERYSGT in vivo 1 Day Protectant

Compound	pest or weed control at 100 ppm [%]
COc1ccnc(C(=O)NC2CCc3ccccc3C2=O)c1O (stereo not drawn) [Compound 285]	< 25
COc1ccnc(C(=O)N[C@H]2C(O)[C@@H]3CC[C@H]2[C@@H]2CCCC[C@@H]23)c1O (stereo partly drawn) [Compound 293]	< 25
COc1ccnc(C(=O)N[C@H]2CC[C@@H](Oc3ccc(C(F)(F)F)cc3)CC2)c1O [Compound 271]	< 25

Tested on: Phytophthora infestans (PHYTIN)
Assay: microbe, parasite or virus in culture
Format: cell-based
Settings: Phytophthora infestans, read-out: PHYTIN in vitro Growth Inhibition

Compound	inhibition at 25 ppm [%]
COc1ccnc(C(=O)NC2CCc3ccccc3C2=O)c1O (stereo not drawn) [Compound 285]	< 80
COc1ccnc(C(=O)N[C@H]2C(O)[C@@H]3CC[C@H]2[C@@H]2CCCC[C@@H]23)c1O (stereo partly drawn) [Compound 293]	< 80
COc1ccnc(C(=O)N[C@H]2CC[C@@H](Oc3ccc(C(F)(F)F)cc3)CC2)c1O [Compound 271]	> 80

Tested on: Ustilago maydis (USTIMA)
Assay: microbe, parasite or virus in culture
Format: cell-based
Settings: Mycosarcoma maydis, read-out: USTIMA in vitro Growth Inhibition

Compound	inhibition at 25 ppm [%]
COc1ccnc(C(=O)NC2CCc3ccccc3C2=O)c1O (stereo not drawn) [Compound 285]	< 80
COc1ccnc(C(=O)N[C@H]2C(O)[C@@H]3CC[C@H]2[C@@H]2CCCC[C@@H]23)c1O (stereo partly drawn) [Compound 293]	< 80
COc1ccnc(C(=O)N[C@H]2CC[C@@H](Oc3ccc(C(F)(F)F)cc3)CC2)c1O [Compound 271]	> 80

Tested on: Stagonospora nodorum (Leptosphaeria nodorum—LEPTNO)
Assay: In vitro fungal growth inhibition, Stagonospora nodorum (LEPTNO)
Format: cell-based
Settings: Leptosphaeria; 25 ppm in growth medium; read-out: LEPTNO in vitro Growth Inhibition

Compound	inhibition at 25 ppm [%]
COc1ccnc(C(=O)NC2CCc3ccccc3C2=O)c1O (stereo not drawn) [Compound 285]	< 80
COc1ccnc(C(=O)N[C@H]2C(O)[C@@H]3CC[C@H]2[C@@H]2CCCC[C@@H]23)c1O (stereo partly drawn) [Compound 293]	< 80
COc1ccnc(C(=O)N[C@H]2CC[C@@H](Oc3ccc(C(F)(F)F)cc3)CC2)c1O [Compound 271]	> 80

Tested on: Rhizoctonia solani (RHIZSO)
Assay: microbe, parasite or virus in culture
Format: cell-based
Settings: Rhizoctonia solani, read-out: RHIZSO in vitro Growth Inhibition

Compound	inhibition at 25 ppm [%]
COc1ccnc(C(=O)NC2CCc3ccccc3C2=O)c1O (stereo not drawn) [Compound 285]	> 80
COc1ccnc(C(=O)N[C@H]2C(O)[C@@H]3CC[C@H]2[C@@H]2CCCC[C@@H]23)c1O (stereo partly drawn) [Compound 293]	< 80
COc1ccnc(C(=O)N[C@H]2CC[C@@H](Oc3ccc(C(F)(F)F)cc3)CC2)c1O [Compound 271]	> 80

Tested on: Magnaporthe grisea (Pyricularia oryzae—PYRIOR)
Assay: microbe, parasite or virus in culture
Format: cell-based
Settings: Pyricularia oryzae, read-out: PYRIOR in vitro Growth Inhibition

Compound	inhibition at 25 ppm [%]
COc1ccnc(C(=O)NC2CCc3ccccc3C2=O)c1O (stereo not drawn) [Compound 285]	< 80
COc1ccnc(C(=O)N[C@H]2C(O)[C@@H]3CC[C@H]2[C@@H]2CCCC[C@@H]23)c1O (stereo partly drawn) [Compound 293]	< 80
COc1ccnc(C(=O)N[C@H]2CC[C@@H](Oc3ccc(C(F)(F)F)cc3)CC2)c1O [Compound 271]	> 80

Tested on: Phytophthora infestans—PHYTIN
Assay: whole plant or invertebrate
Format: in vivo
Settings: Phytophthora, in Solanum lycopersicum, 24 h, read-out: PHYTIN in vivo 1 Day Protectant

Compound	pest or weed control at 100 ppm [%]
COc1ccnc(C(=O)NC2CCc3ccccc3C2=O)c1O (stereo not drawn) [Compound 285]	< 25
COc1ccnc(C(=O)N[C@H]2C(O)[C@@H]3CC[C@H]2[C@@H]2CCCC[C@@H]23)c1O (stereo partly drawn) [Compound 293]	< 25
COc1ccnc(C(=O)N[C@H]2CC[C@@H](Oc3ccc(C(F)(F)F)cc3)CC2)c1O [Compound 271]	25 to 74

Tested on: Puccinia recondita—PUCCRT
Assay: Brown Rust of Wheat, in vivo whole plant, 24 Hour Protectant
Settings: Puccinia; 100 ppm spray, 24 hour protectant, wheat; control of fungal infection vs untreated plants; read-out: PUCCRT in vivo 1 Day Protectant

Compound	pest or weed control at 100 ppm [%]
COc1ccnc(C(=O)NC2CCc3ccccc3C2=O)c1O (stereo not drawn) [Compound 285]	< 25
COc1ccnc(C(=O)N[C@H]2C(O)[C@@H]3CC[C@H]2[C@@H]2CCCC[C@@H]23)c1O (stereo partly drawn) [Compound 293]	< 25
COc1ccnc(C(=O)N[C@H]2CC[C@@H](Oc3ccc(C(F)(F)F)cc3)CC2)c1O [Compound 271]	< 25

Tested on: Leptosphaeria nodorum—LEPTNO
Assay: Glume Blotch of Wheat, in vivo whole plant, 24 Hour Protectant
Settings: Leptosphaeria; 100 ppm spray, 24 hour protectant, wheat; control of fungal infection vs untreated plants; read-out: LEPTNO in vivo 1 Day Protectant

Compound	pest or weed control at 100 ppm [%]
COc1ccnc(C(=O)NC2CCc3ccccc3C2=O)c1O (stereo not drawn) [Compound 285]	25 to 74
COc1ccnc(C(=O)N[C@H]2C(O)[C@@H]3CC[C@H]2[C@@H]2CCCC[C@@H]23)c1O (stereo partly drawn) [Compound 293]	25 to 74
COc1ccnc(C(=O)N[C@H]2CC[C@@H](Oc3ccc(C(F)(F)F)cc3)CC2)c1O [Compound 271]	25 to 74

Tested on: Mycosphaerella graminicola (Septoria tritici—SEPTTR)
Assay: In vitro fungal growth inhibition, Mycosphaerella graminicola (SEPTTR)
Format: cell-based
Settings: Zymoseptoria tritici; 25 ppm in growth medium; read-out: SEPTTR in vitro Growth Inhibition

Compound	inhibition at 25 ppm [%]
COc1ccnc(C(=O)NC2CCc3ccccc3C2=O)c1O (stereo not drawn) [Compound 285]	< 80
COc1ccnc(C(=O)N[C@H]2C(O)[C@@H]3CC[C@H]2[C@@H]2CCCC[C@@H]23)c1O (stereo partly drawn) [Compound 293]	< 80
COc1ccnc(C(=O)N[C@H]2CC[C@@H](Oc3ccc(C(F)(F)F)cc3)CC2)c1O [Compound 271]	> 80
